# Species on record: Rattus norvegicus
# Assay: Open TG-GATES - Regimen: Single
# Format: toxicity, organism-based, Sprague-Dawley
# Parameters: regimen Single, gender Male, age 6 weeks
# Settings: in vivo, po, 60 mg/kg, route gavage, dose level High; for APTT / Bas / Eos / Fbg / Hb / Ht / Lym / MCH / MCHC / MCV / Mono / Neu / PT / Plat / RBC / Ret / WBC: tissue Blood; for KIDNEY_L / KIDNEY_R / KIDNEY_TOTAL: tissue Kidney; for LIVER: tissue Liver; for A/G / ALP / ALT / AST / BUN / CRE / Ca / Cl / DBIL / GLC / IP / K / LDH / Na / PL / RALB / TBIL / TC / TG / TP / gamma-GTP: tissue Plasma
smiles,measurement,setting,value
CC(C)NNC(=O)c1ccncc1 [IPRONIAZID],TERMINAL_BW,3 h,204.9 g
same,APTT,3 h,22.1 s
same,Bas,3 h,0%
same,Eos,3 h,1%
same,Fbg,3 h,294 mg/dL
same,Hb,3 h,12.7 g/dL
same,Ht,3 h,37%
same,Lym,3 h,74.8%
same,MCH,3 h,20.9 pg
same,MCHC,3 h,34.2%
same,MCV,3 h,61 fL
same,Mono,3 h,2%
same,Neu,3 h,21.8%
same,PT,3 h,16.2 s
same,Plat,3 h,124.5 x10_4/uL
same,RBC,3 h,608.8 x10_4/ul
same,Ret,3 h,7.9%
same,WBC,3 h,90.6 x10_2/uL
same,KIDNEY_L,3 h,1 g
same,KIDNEY_R,3 h,1 g
same,KIDNEY_TOTAL,3 h,1.9 g
same,LIVER,3 h,8.8 g
same,A/G,3 h,1.3
same,ALP,3 h,1312.5 IU/L
same,ALT,3 h,35 IU/L
same,AST,3 h,72.2 IU/L
same,BUN,3 h,12 mg/dL
same,CRE,3 h,0.2 mg/dL
same,Ca,3 h,10.5 mg/dL
same,Cl,3 h,105.8 meq/L
same,DBIL,3 h,0 mg/dL
same,GLC,3 h,180.5 mg/dL
same,IP,3 h,9.8 mg/dL
same,K,3 h,4 meq/L
same,LDH,3 h,221.5 IU/L
same,Na,3 h,141.2 meq/L
same,PL,3 h,136 mg/dL
same,RALB,3 h,2.9 g/dL
same,TBIL,3 h,0 mg/dL
same,TC,3 h,78 mg/dL
same,TG,3 h,34.8 mg/dL
same,TP,3 h,5.2 g/dL
same,gamma-GTP,3 h,1 IU/L
same,TERMINAL_BW,6 h,212.4 g
same,APTT,6 h,21.7 s
same,Bas,6 h,0%
same,Eos,6 h,0.8%
same,Fbg,6 h,325.8 mg/dL
same,Hb,6 h,13 g/dL
same,Ht,6 h,38%
same,Lym,6 h,72.2%
same,MCH,6 h,21 pg
same,MCHC,6 h,34.3%
same,MCV,6 h,61.4 fL
same,Mono,6 h,2%
same,Neu,6 h,23.8%
same,PT,6 h,15.6 s
same,Plat,6 h,125.7 x10_4/uL
same,RBC,6 h,619.8 x10_4/ul
same,Ret,6 h,8%
same,WBC,6 h,79.9 x10_2/uL
same,KIDNEY_L,6 h,0.9 g
same,KIDNEY_R,6 h,0.9 g
same,KIDNEY_TOTAL,6 h,1.8 g
same,LIVER,6 h,9.2 g
same,A/G,6 h,1.3
same,ALP,6 h,1181.8 IU/L
same,ALT,6 h,35 IU/L
same,AST,6 h,75.4 IU/L
same,BUN,6 h,8.8 mg/dL
same,CRE,6 h,0.1 mg/dL
same,Ca,6 h,10.8 mg/dL
same,Cl,6 h,106.8 meq/L
same,DBIL,6 h,0.002 mg/dL
same,GLC,6 h,180 mg/dL
same,IP,6 h,9.9 mg/dL
same,K,6 h,4.1 meq/L
same,LDH,6 h,237.8 IU/L
same,Na,6 h,142 meq/L
same,PL,6 h,159.2 mg/dL
same,RALB,6 h,3 g/dL
same,TBIL,6 h,0.002 mg/dL
same,TC,6 h,93.6 mg/dL
same,TG,6 h,44.6 mg/dL
same,TP,6 h,5.5 g/dL
same,gamma-GTP,6 h,1.4 IU/L
same,TERMINAL_BW,9 h,196.4 g
same,APTT,9 h,22.5 s
same,Bas,9 h,0%
same,Eos,9 h,1%
same,Fbg,9 h,320.6 mg/dL
same,Hb,9 h,13 g/dL
same,Ht,9 h,37.9%
same,Lym,9 h,76%
same,MCH,9 h,20 pg
same,MCHC,9 h,34.3%
same,MCV,9 h,58.3 fL
same,Mono,9 h,1.4%
same,Neu,9 h,21%
same,PT,9 h,15.9 s
same,Plat,9 h,121.4 x10_4/uL
same,RBC,9 h,650.4 x10_4/ul
same,Ret,9 h,6.3%
same,WBC,9 h,55.2 x10_2/uL
same,KIDNEY_L,9 h,0.9 g
same,KIDNEY_R,9 h,0.9 g
same,KIDNEY_TOTAL,9 h,1.8 g
same,LIVER,9 h,8 g
same,A/G,9 h,1.2
same,ALP,9 h,1174.6 IU/L
same,ALT,9 h,27.2 IU/L
same,AST,9 h,65 IU/L
same,BUN,9 h,7.6 mg/dL
same,CRE,9 h,0.2 mg/dL
same,Ca,9 h,10.4 mg/dL
same,Cl,9 h,107 meq/L
same,DBIL,9 h,0.006 mg/dL
same,GLC,9 h,184.6 mg/dL
same,IP,9 h,9.4 mg/dL
same,K,9 h,4 meq/L
same,LDH,9 h,176.2 IU/L
same,Na,9 h,142.2 meq/L
same,PL,9 h,139.6 mg/dL
same,RALB,9 h,3.1 g/dL
same,TBIL,9 h,0.004 mg/dL
same,TC,9 h,84.4 mg/dL
same,TG,9 h,30.4 mg/dL
same,TP,9 h,5.6 g/dL
same,gamma-GTP,9 h,1 IU/L
same,TERMINAL_BW,24 h,208.5 g
same,APTT,24 h,21.7 s
same,Bas,24 h,0%
same,Eos,24 h,1%
same,Fbg,24 h,336.8 mg/dL
same,Hb,24 h,13.6 g/dL
same,Ht,24 h,39.4%
same,Lym,24 h,80.6%
same,MCH,24 h,21.3 pg
same,MCHC,24 h,34.5%
same,MCV,24 h,61.8 fL
same,Mono,24 h,2.4%
same,Neu,24 h,14.8%
same,PT,24 h,15.4 s
same,Plat,24 h,119.6 x10_4/uL
same,RBC,24 h,637.4 x10_4/ul
same,Ret,24 h,7.5%
same,WBC,24 h,66.9 x10_2/uL
same,KIDNEY_L,24 h,0.9 g
same,KIDNEY_R,24 h,1 g
same,KIDNEY_TOTAL,24 h,1.9 g
same,LIVER,24 h,9.2 g
same,A/G,24 h,1.3
same,ALP,24 h,1223.4 IU/L
same,ALT,24 h,37 IU/L
same,AST,24 h,74.4 IU/L
same,BUN,24 h,14 mg/dL
same,CRE,24 h,0.2 mg/dL
same,Ca,24 h,10.6 mg/dL
same,Cl,24 h,107 meq/L
same,DBIL,24 h,0.002 mg/dL
same,GLC,24 h,187.6 mg/dL
same,IP,24 h,7.8 mg/dL
same,K,24 h,4.1 meq/L
same,LDH,24 h,240.4 IU/L
same,Na,24 h,142.6 meq/L
same,PL,24 h,148.6 mg/dL
same,RALB,24 h,3.1 g/dL
same,TBIL,24 h,0.02 mg/dL
same,TC,24 h,91 mg/dL
same,TG,24 h,60.6 mg/dL
same,TP,24 h,5.6 g/dL
same,gamma-GTP,24 h,1.6 IU/L
